How the values were obtained:
Experiment in all cases: agar dilution plate method, percent retardation of wood rot fungi
Format in all cases: cell-based
[1] = test system: C. globosum (soft rot decay fungi)
Description: (§1) The efficacy of aqueous 1,2-benzisothiazolone/amine oxide solutions containing the amine oxides in Table 1 against the wood rot fungi T. versicolor (white rot fungi), G. trabeum (brown rot fungi), P. placenta (brown rot fungi), and C. globosum (soft rot decay fungi) were determined using the agar dilution plate method well known in the art. The water in the solution was evaporated to form an agar/biocide mixture and then tested. Each solution was tested at dilutions ranging from 10 to 5000 ppm of benzisothiazolone. The weight ratio of amine oxide to 1,2-benzisothiazolone was either 20:1 or 10:1 in each solution. The percent retardation of the fungi was determined by the percentage change in the diameter of the fungi on the agar plate (i.e. Percent Retardation=((Diameter of Control)−(Diameter of Treated Fungi))/(Diameter of Control)* 100%).
(§2) The efficacy of aqueous 4,5-dichloro-2-n-octyl-3-isothiazolone/amine oxide solutions containing the amine oxides in Table 2 against the wood rot fungi T. versicolor (white not fungi), G. trabeum (brown rot fungi), P. placenta (brown rot fungi), and C. globosum (soft rot decay fungi) were determined as described in Example 6.

[2] = test system: G. trabeum (brown rot fungi)
Description: as §1, §2

[3] = test system: P. placenta (brown rot fungi)
Description: as §1, §2

[4] = test system: T. versicolor (white rot fungi)
Description: as §1, §2

[5] = no amine oxide, 4,5-dichloro-2-n-octyl-isothiazolone 0.5 ppm
[6] = no amine oxide, 4,5-dichloro-2-n-octyl-isothiazolone 5 ppm
[7] = no amine oxide, 4,5-dichloro-2-n-octyl-isothiazolone 50 ppm
[8] = no amine oxide, 4,5-dichloro-2-n-octyl-isothiazolone 100 ppm
[9] = no amine oxide, 4,5-dichloro-2-n-octyl-isothiazolone 250 ppm
[10] = no amine oxide, 4,5-dichloro-2-n-octyl-isothiazolone 500 ppm
[11] = no amine oxide, 4,5-dichloro-2-n-octyl-isothiazolone 750 ppm

CCCCCCCCn1sc(Cl)c(Cl)c1=O [4,5-dichloro-2-n-octyl-isothiazolone, 4,5-dichloro-2-n-octyl-3-isothiazolone]
Percent Retardation C. globosum [1, 5]: 63% | Percent Retardation C. globosum [1, 6]: 60% | Percent Retardation C. globosum [1, 7]: 67% | Percent Retardation C. globosum [1, 8]: 78% | Percent Retardation C. globosum [1, 9]: 89% | Percent Retardation C. globosum [1, 10]: 100% | Percent Retardation C. globosum [1, 11]: 100% | Percent Retardation G. trabeum [2, 5]: 11% | Percent Retardation G. trabeum [2, 6]: 63% | Percent Retardation G. trabeum [2, 7]: 83% | Percent Retardation G. trabeum [2, 8]: 85% | Percent Retardation G. trabeum [2, 9]: 87% | Percent Retardation G. trabeum [2, 10]: 88% | Percent Retardation G. trabeum [2, 11]: 100% | Percent Retardation P. placenta [3, 5]: 42% | Percent Retardation P. placenta [3, 6]: 83% | Percent Retardation P. placenta [3, 7]: 100% | Percent Retardation P. placenta [3, 8]: 100% | Percent Retardation P. placenta [3, 9]: 100% | Percent Retardation P. placenta [3, 10]: 100% | Percent Retardation T Versicolor [4, 5]: 12% | Percent Retardation T Versicolor [4, 6]: 51% | Percent Retardation T Versicolor [4, 7]: 82% | Percent Retardation T Versicolor [4, 8]: 87% | Percent Retardation T Versicolor [4, 9]: 87% | Percent Retardation T Versicolor [4, 10]: 88% | Percent Retardation T Versicolor [4, 11]: 100%

From patent US6448279B1, “Isothiazolone/amine oxide wood preservatives” (Lonza Inc., priority 1999, dated 2002)
